Row | melting point | SMILES
1 | 208 to 210 °C | CC(=O)Nc1ccc(S(=O)(=O)Nc2onc(C)c2Br)cc1
2 | 150 °C | COC(=O)C1CCC2C3CCC4CC(C)(O)CCC4(C)C3C(=O)CC12C (stereo unspecified)
3 | 38 to 39 °C | Cc1cc(CCCCCOc2ccc(C3OC=CO3)cc2)on1
4 | 189 to 190 °C | CNS(=O)(=O)c1nc2ccc(O)cc2s1
5 | 153 to 155 °C | CC(C)(CC(C)(c1ccccc1)c1ccc(O)c(C(=O)O)c1)c1ccccc1 (stereo unspecified)
6 | 186 to 187 °C | NS(=O)(=O)N1CCC(CCNC(=O)c2cc(Cl)ccn2)CC1
7 | 229 to 230 °C | Cn1c(=O)c2c(N)nccc2n(C)c1=O
8 | 190 to 192 °C | CCOc1ccc(S(C)(=O)=O)cc1C(=O)Nc1c(C(N)=O)nn(CCOC)c1CC
9 | 146 to 148 °C | CC(C)(C)c1ccc(/C=N/OCCOc2ccc(C(=O)O)c(OC(=O)c3ccc(C(F)(F)F)cc3)c2)cc1
10 | 200 to 202 °C | O=C(CNS(=O)(=O)c1ccc2ccccc2c1)NCC(NC(=O)C1CCN(c2ccncc2)CC1)C(=O)C1CCCCN1 (stereo unspecified)
11 | 142 to 144 °C | O=c1c2ccccc2c(-c2ccc(Cl)cc2)nn1CCc1ccncc1
12 | 93 to 94 °C | CCOC(=O)c1c(C(C)C)csc1N/C=C(\C#N)C(=O)OC(C)(C)C
13 | 201 to 204 °C | Cc1nc2c3c(c(C(=O)N4CC4)cc2n1C)CCC(c1ccccc1)O3 (stereo unspecified)
14 | 105 to 108 °C | CC(=O)N(Cc1cccs1)C1(c2ccc(Cl)cc2)CCC1
15 | 94 to 97 °C | COc1ccc2c(c1N)C(CCNC(C)=O)CC2 (stereo unspecified)
16 | 74 to 75 °C | CC(=O)OC1c2ccccc2C(=O)N1CCO[N+](=O)[O-] (stereo unspecified)
17 | 169 °C | COc1cccc(CCN2C(=O)c3cc(Cl)c(Cl)cc3C2(O)c2ccc(F)cc2)c1 (stereo unspecified)
18 | 116 to 117 °C | CC(C)C(=O)NCCNC(=O)OC(C)(C)C
19 | 161 to 162 °C | CCCCCCCNC(=O)Nc1ccc(O)cc1C(=O)NCCC(c1ccccc1)c1ccccc1
20 | 258 °C | CC(C)(C)c1cc(C=C2OC(NC(=N)N)=NC2=O)cc(C(C)(C)C)c1O
21 | 219 to 221 °C | CCNC(=O)N(C)Cc1cccc2c1C(=O)N(C1CCC(=O)NC1=O)C2=O (stereo unspecified)
22 | 195 °C | COc1ccc(C(=O)n2c3c(c4ccccc42)CC(C(=O)O)CC3)cc1 (stereo unspecified)

Row | melting point | SMILES
23 | 210 to 211 °C | N#Cc1ccc(Nc2ccncc2[N+](=O)[O-])cc1
24 | 190 to 191 °C | CN1CCCc2cc(Cc3cnc(N)nc3N)ccc21
25 | 46 to 47 °C | CCOC(=O)CC(=O)c1ccc(-c2ccc(Cl)cc2)o1
26 | 91 to 93 °C | CC(C)(C)c1cc(C(=O)COc2ccc(C(=O)OCc3ccccc3)c(O)c2)ccc1OCc1ccccc1
27 | 122 to 125 °C | CCOC(=O)c1cc(=O)c(-c2ccc(OCc3ccccc3)c(OCc3ccccc3)c2)co1
28 | 171 to 172 °C | CCc1cccc2c1C(=O)C(=S)N2
29 | 100 to 102 °C | CC(CC(=O)c1cccc(Cl)c1)C(=O)O (stereo unspecified)
30 | 110 to 111 °C | c1ccc2c(c1)nc(-c1ccc3c(c1)OCO3)n2CCC1CCCCC1
31 | 190 to 195 °C | O=C(O)c1ccc(SC(C(=O)O)c2cccc(C(F)(F)F)c2)cn1 (stereo unspecified)
32 | 156 to 158 °C | O=C(O)c1ccc(OC2=C3N=C4CCCCC4=C3C(Cc3ccc(Br)cc3)C=C2)o1 (stereo unspecified)
33 | 145 to 147 °C | NC(=O)c1ccccc1NCCC12CCCN1CCC2
34 | 211 to 213 °C | O=C1CCC(N2Cc3c(OCc4cccc(CN5CCC(c6ccc(F)cc6F)CC5)c4)cccc3C2=O)C(=O)N1 (stereo unspecified)
35 | 148 to 150 °C | CCC(=O)NCC=C1CCc2ccc3ncoc3c21
36 | 204 to 205 °C | CCCCc1nc2cccc(C(=O)OC)c2n1Cc1ccc(-c2ccccc2-c2n[nH]c(=O)o2)cc1
37 | 170 to 171 °C | CC(C)(C)OC(=O)N1CC(CO)c2c1cc(OCc1ccccc1)c1ncccc21 (stereo unspecified)
38 | 94 to 96 °C | CCCn1c(SC)nc2sccc2c1=O
39 | 158 to 160 °C | CC(C)CC1=CC(c2cccc([N+](=O)[O-])c2)C2=C(CCCC2=O)N1 (stereo unspecified)
40 | 202 to 203 °C | CC(=O)c1c(-c2ccc(F)cc2)[nH]c(-c2ccncc2)c1C
41 | 217 to 219 °C | O=C(NCc1ccc(Cl)cc1)c1cnc2sc(C(=O)N3CCOCC3)cc2c1O
42 | 64 to 65 °C | O=C(O)CSc1sccc1Br
43 | 140 °C | CC(OC(=O)C(F)(F)F)C1CCC2C3CC=C4CC(NC(=O)C(F)(F)F)CCC4(C)C3CCC12C (stereo unspecified)
44 | 172 to 173 °C | CCOc1cc(NC(=O)CCC(=O)c2ccc(OCC)c(OCC)c2)nc(-c2ccccc2)c1

Row | melting point | SMILES
45 | 78 to 79 °C | Cc1nnc(COc2ccc(Oc3ccccc3)cc2)o1
46 | 233 to 235 °C | CN=C1CCCc2scnc21
47 | 364 to 368 °C | Cc1sc2nc3ccc(C(=O)O)cn3c(=O)c2c1C
48 | 77 to 80 °C | COCCNCC(O)c1ccccc1 (stereo unspecified)
49 | 197 to 199 °C | C#CCN(Cc1ccc2nc[nH]c(=O)c2c1)c1ccc(C(C)=O)cc1
50 | 100 to 102 °C | c1ccc2cc(OCc3ccc4ccccc4n3)ccc2c1
51 | 93 to 96 °C | COc1ccc2c(c1)CCN(CCc1ccc(NC=O)cc1)C2C (stereo unspecified)
52 | 235 to 237 °C | O=C1c2ccccc2C(=O)N1c1ccc(S(=O)(=O)NCCC2(C(=O)NCC(F)(F)F)c3ccccc3-c3ccccc32)cc1
53 | 174 to 178 °C | O=CNC1Cc2cc(Br)ccc2N(C=O)C1 (stereo unspecified)
54 | 94 to 95 °C | O=C(O)CCCCCc1nn(Cc2ccccc2)c2c1CCC2
55 | 109 °C | COC(=O)C1=C(C(=O)N(C(=O)CCl)c2cc(OC)c(Cl)cc2F)CCCC1
56 | 176 to 180 °C | COc1cc(OC)c(/C=C/S(=O)(=O)Cc2ccc(OC)c(NC(C)C(=O)O)c2)c(OC)c1 (stereo unspecified)
57 | 106 °C | CC1=C(C)N(C(=O)Oc2ccccc2)C(c2ccc(C)cc2)C=C1 (stereo unspecified)
58 | 274 to 275 °C | O=C1CCC(c2ccc3c(c2)NC(=O)CO3)=NN1
59 | 220 to 221 °C | OC[C@H]1CCCN1c1nc2c(-c3nc(C4CC4)no3)ncn2c2cccc(Cl)c12
60 | 152 to 153 °C | CCOP(=O)(Cc1ccc(Oc2sc(C(N)=O)c3c2-c2c(cnn2CC)CC3)cc1)OCC
61 | 121 to 125 °C | COc1cc(F)ccc1-c1ccc(S(=O)(=O)N2c3ccccc3CC2C(=O)NCc2ccccc2NCCC(=O)O)cc1 (stereo unspecified)
62 | 40 to 42 °C | COC(=O)c1ccc(CC(=O)c2ccccc2Cl)cc1
63 | 188 to 191 °C | Nc1nc2ccc(Cc3cccs3)cc2s1
64 | 200 to 202 °C | COc1cc2c(Nc3ccc(Cl)cc3F)ncnc2cc1OCCOc1ccncc1
65 | 145 °C | Cc1ccc(S(=O)(=O)N2[C@@H](CCc3ncnn3C)CC[C@H]2c2ccc(F)cc2)cc1 (racemic)
66 | 246 to 249 °C | Cc1ccc(S(=O)(=O)N=c2[nH]c3ccccc3s2)cc1

Row | SMILES | melting point
67 | O=C(OCC(Cl)(Cl)Cl)ON1C(=O)CCC1=O | 98 to 101 °C
68 | OC1C2CCN(CC2)C1C#Cc1ccc(-c2cccnc2)cc1 (stereo unspecified) | 189 to 190 °C
69 | CCOc1cc(C(=O)N2CCC(CCN3CCC(C(N)=O)(c4ccccc4)CC3)(c3ccc(OC)c(OC)c3)C2)cc(OCC)c1OCC (stereo unspecified) | 139 to 141 °C
70 | NCCc1c(Br)[nH]c2ccc3c(=O)[nH]ccc3c12 | 252 °C
71 | CCOc1ccc2c(c1)c(C[C@H](C)N)c1n2CCC1 | 101 to 102 °C

Reference: a melting point compilation (Tetko et al.; mined from patent text by program, amines drawn as free bases though some values may be those of a salt)
